The source of these data is patent US20230295163A1, “TETRACYCLIC DERIVATIVE, METHOD FOR PREPARING SAME AND USE THEREOF IN MEDICINE” (ZHEJIANG HISUN PHARMACEUTICAL CO., LTD., priority 2020, published 2023).

The target in data set [1] is T1, hERG potassium ion channel (Homo sapiens, UniProt Q12809).
T1 construct: host or cells: CHO
Kind of data set: Inhibition of hERG potassium ion channel (QPatch, CHO hERG cells). The class given is cell-based. The method, then:
1.1 The cells used in this experiment were CHO cell line (provided by Sophion Bioscience, Denmark) transfected with hERG cDNA and stably expressing hERG channels, with a cell generation of 17. The cells were cultured in a medium containing the following components (all obtained from Invitrogen): Ham's F12 medium, 10% (v/v) inactivated fetal bovine serum, 100 μg/mL hygromycin B, and 100 μg/mL geneticin.
1.2 CHO hERG cells were cultured in a petri dish containing the above culture medium in an incubator containing 5% CO2 at 37° C. 24 to 48 h before the electrophysiological experiment, CHO hERG cells were transferred to a round glass slide placed in a petri dish, and cultured in the same medium and conditions as above. The density of CHO hERG cells on each round glass slide met the requirement that the majority of cells were independent and individual.
A fully automated QPatch system (Sophion, Denmark) was used for whole-cell current recordings. Cells were clamped at a voltage of −80 mV. […]
After reaching a membrane-permeable whole-cell configuration state during the initial phase, the cells were recorded for at least 120 s to reach stabilization. […]
The test data were analyzed by analysis software Qpatch provided by Sophion, Excel, Graphpad Prism, and the like.
Background: The hERG channel carries a current that helps repolarise heart muscle cells.

Data set [2] deals with p-ERK1/2 in NCI-H358 cells. The data set can be described thus: Inhibition of p-ERK1/2 in NCI-H358 cells (HTRF kit). The format is cell-based. The settings on record: Homo sapiens, hEGF 5 nM stimulation, read-out: IC50 inhibiting p-ERK1/2 in NCI-H358 cells. From the text:
The following method was used to determine the inhibitory activity of the compounds of the present disclosure on p-ERK1/2 in NCI-H358 cells. In this method, Advanced phospho-ERK1/2 (Thr202/tyr204) kit (Cat. No. 64AERPEH) from Cisbio company was used, and the detailed experimental operation can be referred to the kit instruction. NCI-H358 cells (containing KRAS G12C mutation) were purchased from the Cell Resource Center, Shanghai Institutes for Biology Sciences, Chinese Academy of Sciences.
The experimental procedure is briefly described as follows: NCI-H358 cells were cultured in RPMIH 1640 complete medium containing 10% fetal bovine serum, 100 U penicillin, 100 μg/mL streptomycin and 1 mM sodium pyruvate. […] The 96-well plate was placed on ice for half an hour of lysis, and then the lysate was detected according to the instruction of the Advanced phospho-ERK1/2 (Thr202/tyr204) kit. Finally, the fluorescence intensity of each well at emission wavelengths of 620 nm and 665 nM was measured on a microplate reader in TF-FRET mode at an excitation wavelength of 304 nm, and the ratio of the fluorescence intensity of each well at 665/620 was calculated. The percentage of inhibition rate of the test compounds at each concentration was calculated by comparing with the fluorescence intensity of the control group (0.1% DMSO). […]
In general terms: In TR-FRET formats the signal depends on donor and acceptor labels being close together.

T1 sequence (Q12809 whole entry): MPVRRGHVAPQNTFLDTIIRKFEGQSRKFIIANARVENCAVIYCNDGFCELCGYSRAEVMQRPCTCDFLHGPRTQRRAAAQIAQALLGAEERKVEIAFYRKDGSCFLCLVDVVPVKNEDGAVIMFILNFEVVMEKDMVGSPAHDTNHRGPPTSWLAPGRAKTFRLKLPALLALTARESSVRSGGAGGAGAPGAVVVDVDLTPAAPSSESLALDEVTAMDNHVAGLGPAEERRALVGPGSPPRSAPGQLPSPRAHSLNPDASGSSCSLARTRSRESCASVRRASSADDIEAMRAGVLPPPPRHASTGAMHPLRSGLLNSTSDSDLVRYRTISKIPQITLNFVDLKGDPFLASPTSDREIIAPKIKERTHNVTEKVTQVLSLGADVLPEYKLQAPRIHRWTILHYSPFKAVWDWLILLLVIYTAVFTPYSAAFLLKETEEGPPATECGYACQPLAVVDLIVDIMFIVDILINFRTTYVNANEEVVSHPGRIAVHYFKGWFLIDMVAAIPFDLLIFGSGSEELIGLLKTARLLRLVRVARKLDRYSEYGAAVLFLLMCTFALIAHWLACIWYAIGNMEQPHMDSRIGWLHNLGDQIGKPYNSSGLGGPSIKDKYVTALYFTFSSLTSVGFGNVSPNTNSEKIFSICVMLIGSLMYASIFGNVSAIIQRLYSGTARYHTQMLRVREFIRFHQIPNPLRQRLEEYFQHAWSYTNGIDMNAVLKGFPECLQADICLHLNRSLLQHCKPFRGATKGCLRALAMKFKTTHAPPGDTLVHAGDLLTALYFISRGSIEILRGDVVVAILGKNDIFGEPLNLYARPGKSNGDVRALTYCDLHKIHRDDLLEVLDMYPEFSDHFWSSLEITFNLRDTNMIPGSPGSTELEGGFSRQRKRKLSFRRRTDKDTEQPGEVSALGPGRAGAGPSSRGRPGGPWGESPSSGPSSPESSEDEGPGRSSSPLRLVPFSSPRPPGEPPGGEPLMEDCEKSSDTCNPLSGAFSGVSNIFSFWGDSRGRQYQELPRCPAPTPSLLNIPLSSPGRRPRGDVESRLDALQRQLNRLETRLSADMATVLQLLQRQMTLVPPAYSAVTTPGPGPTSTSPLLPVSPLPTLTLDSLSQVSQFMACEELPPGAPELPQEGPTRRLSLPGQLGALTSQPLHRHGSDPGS

On to `C=CC(=O)N1C[C@@H]2C(=O)N(C)c3c(c4cc(Cl)c(-c5c(O)cccc5F)nc4n(-c4c(SC)ccnc4C(C)C)c3=O)N2C[C@H]1C` (single isomer, unassigned) [Compound 17], for which, in data set [1], the “Inhibitory effect on heart hERG potassium ion channel (in words)” value is “no obvious inhibitory effect”. In addition, the IC50 is more than 30000 nM in data set [1] (highest test concentration 30 μM) and 83.4 nM in data set [2].
